These results are taken from BindingDB's records for doi:10.1021/jm031121n (Novo Nordisk, 2004).

Chain of Glycogen phosphorylase, muscle form (Oryctolagus cuniculus) (P00489 whole entry, looked up): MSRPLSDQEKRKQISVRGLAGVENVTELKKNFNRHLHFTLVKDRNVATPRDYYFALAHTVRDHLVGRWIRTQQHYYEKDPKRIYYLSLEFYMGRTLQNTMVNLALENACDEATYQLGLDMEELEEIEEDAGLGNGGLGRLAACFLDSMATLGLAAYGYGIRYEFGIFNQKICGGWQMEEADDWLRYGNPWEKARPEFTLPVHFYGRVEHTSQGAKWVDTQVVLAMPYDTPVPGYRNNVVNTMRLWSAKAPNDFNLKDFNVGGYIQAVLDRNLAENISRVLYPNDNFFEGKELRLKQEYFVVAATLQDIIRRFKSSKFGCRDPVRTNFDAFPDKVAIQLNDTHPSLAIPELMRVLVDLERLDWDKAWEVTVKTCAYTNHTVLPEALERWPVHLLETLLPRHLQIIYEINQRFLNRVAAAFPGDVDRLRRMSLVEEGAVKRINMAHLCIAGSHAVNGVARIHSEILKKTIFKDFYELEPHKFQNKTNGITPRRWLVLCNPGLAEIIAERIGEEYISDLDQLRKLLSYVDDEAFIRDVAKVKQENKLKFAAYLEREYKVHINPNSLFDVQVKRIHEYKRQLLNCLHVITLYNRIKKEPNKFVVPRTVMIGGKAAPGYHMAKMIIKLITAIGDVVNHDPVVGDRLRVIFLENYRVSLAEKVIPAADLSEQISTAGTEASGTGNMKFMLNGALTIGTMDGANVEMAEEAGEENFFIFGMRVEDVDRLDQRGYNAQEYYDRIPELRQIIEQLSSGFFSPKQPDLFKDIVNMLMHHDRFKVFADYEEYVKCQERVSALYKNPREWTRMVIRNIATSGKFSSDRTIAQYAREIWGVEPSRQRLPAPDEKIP

One assay addresses Glycogen phosphorylase, muscle form (Oryctolagus cuniculus) (UniProt P00489). The assay is described as follows: Inhibitory activity against rabbit Muscle glycogen phosphorylase b.
Consider `O=C1NC(=O)[C@]2(C[C@H](CO)[C@@H](O)[C@H](O)[C@H]2O)N1` [(6S,7S,8R,9R)-6,7,8-Trihydroxy-9-hydroxymethyl-1,3-diaza-spiro[4.5]decane-2,4-dione], for which affinity was put at a Ki of 3000 nM.

Target in another assay: not listed separately
Briefly: Inhibitory activity against rabbit muscle glycogen phosphorylase a in the absence of AMP.
`CCN1C(C)=C(C(=O)OC(C)C)[C@@H](c2ccccc2)C(C(=O)O)=C1C(=O)O` [(S)-1-Ethyl-6-methyl-4-phenyl-1,4-dihydro-pyridine-2,3,5-tricarboxylic acid 5-isopropyl ester]: the affinity corresponds to a Ki of 11 nM.

The next assay concerns the target Glycogen phosphorylase, muscle form (Oryctolagus cuniculus) (UniProt P00489). The assay is described as follows: Inhibition of Rabbit muscle glycogen phosphorylase B.
Regarding `CC(=O)c1cccc(C(=O)Nc2ccccc2Oc2ccc(C(=O)O)c(C(=O)O)c2)c1` [4-[2-(3-Acetyl-benzoylamino)-phenoxy]-phthalic acid], the IC50 – broadly, the concentration at which inhibition is half-maximal – was found to be 50 µM.
Same read-out and setting: with `O=C(O)c1cccc(C(=O)Nc2ccccc2Oc2ccc(C(=O)O)c(C(=O)O)c2)c1` [4-[2-(3-Carboxy-benzoylamino)-phenoxy]-phthalic acid] the figure was above 200 µM.
Same read-out and setting: with `COc1cccc(C(=O)Nc2ccccc2Oc2ccc(C(=O)O)c(C(=O)O)c2)c1` [4-[2-(3-Methoxy-benzoylamino)-phenoxy]-phthalic acid] the figure was 50 µM.

The target of the next assay is Glycogen phosphorylase, liver form (Sus scrofa). Briefly: In vitro inhibition of pig liver Glycogen phosphorylase A.
For `O=C(Nc1ccccc1Oc1ccc(C(=O)O)c(C(=O)O)c1)c1ccccc1` [4-(2-Benzoylamino-phenoxy)-phthalic acid], the IC50 was above 200000 nM.
The same measure, in the same setting: with `O=C(Nc1ccccc1Oc1ccc(C(=O)O)c(C(=O)O)c1)c1ccc(Cl)c(Cl)c1` [4-[2-(3,4-Dichloro-benzoylamino)-phenoxy]-phthalic acid] the figure was above 50000 nM; with `O=C(O)c1cccc(C(=O)Nc2ccccc2Oc2ccc(C(=O)O)c(C(=O)O)c2)c1` [4-[2-(3-Carboxy-benzoylamino)-phenoxy]-phthalic acid], above 100000 nM.
The same measure, in the same setting: with `O=C(Nc1cc(C(F)(F)F)ccc1Oc1ccc(C(=O)O)c(C(=O)O)c1)c1cccc([N+](=O)[O-])c1` [4-[2-(3-Nitro-benzoylamino)-4-trifluoromethyl-phenoxy]-phthalic acid] the figure was 1800 nM; with `O=C(Nc1ccccc1Oc1ccc(C(=O)O)c(C(=O)O)c1)c1ccc(Cl)cc1` [4-[2-(4-Chloro-benzoylamino)-phenoxy]-phthalic acid], above 200000 nM.
Same read-out and setting: with `Cc1ccc(C(=O)Nc2ccccc2Oc2ccc(C(=O)O)c(C(=O)O)c2)cc1` [4-[2-(4-Methyl-benzoylamino)-phenoxy]-phthalic acid] the figure was above 30000 nM.
`CC(=O)Nc1ccc(Oc2ccc(C(=O)O)c(C(=O)O)c2)c(NC(=O)c2cccc([N+](=O)[O-])c2)c1` [4-[4-Acetylamino-2-(3-nitro-benzoylamino)-phenoxy]-phthalic acid] returned an IC50 of 140 nM.
Same read-out and setting: with `O=C(Nc1ccc(Oc2ccc(C(=O)O)c(C(=O)O)c2)c(NC(=O)c2cccc([N+](=O)[O-])c2)c1)c1ccccc1` [4-[4-Benzoylamino-2-(3-nitro-benzoylamino)-phenoxy]-phthalic acid] the figure was 120 nM; with `O=C(Nc1cc(Br)ccc1Oc1ccc(C(=O)O)c(C(=O)O)c1)c1cccc([N+](=O)[O-])c1` [4-[4-Bromo-2-(3-nitro-benzoylamino)-phenoxy]-phthalic acid], 250 nM.
Still for that read-out and setting: with `N#Cc1ccc(Oc2ccc(C(=O)O)c(C(=O)O)c2)c(NC(=O)c2cccc([N+](=O)[O-])c2)c1` [4-[4-Cyano-2-(3-nitro-benzoylamino)-phenoxy]-phthalic acid] the figure was 2200 nM; with `O=C(Nc1cc(F)ccc1Oc1ccc(C(=O)O)c(C(=O)O)c1)c1cccc([N+](=O)[O-])c1` [4-[4-Fluoro-2-(3-nitro-benzoylamino)-phenoxy]-phthalic acid], 2500 nM.
Regarding `Cc1ccc(Oc2ccc(C(=O)O)c(C(=O)O)c2)c(NC(=O)c2cccc([N+](=O)[O-])c2)c1` [4-[4-Methyl-2-(3-nitro-benzoylamino)-phenoxy]-phthalic acid], the IC50 is 450 nM.
The same measure, in the same setting: with `Cc1cc(Oc2ccc(C(=O)O)c(C(=O)O)c2)c(NC(=O)c2cccc([N+](=O)[O-])c2)cc1NC(=O)c1cccc([N+](=O)[O-])c1` [4-[5-Methyl-2,4-bis-(3-nitro-benzoylamino)-phenoxy]-phthalic acid] the figure was 700 nM.
